This passage reports Activity results from ChEMBL document CHEMBL2074026, “Novel experimental parameters to quantify the modulation of absorptive and secretory transport of compounds by P-glycoprotein in cell culture models of intestinal epithelium” (Pharm Res, 2003).

Type in all cases: functional, cell-based
Data set [1] deals with T1, ATP-dependent translocase ABCB1 (Homo sapiens, UniProt P08183). Put plainly: TP_TRANSPORTER: transepithelial transport of Saquinavir at a concentration of 20 uM in Caco-2 cells. To be noted: caco-2, 20 µM. For orientation: Caco-2 monolayers are a common model of the intestinal barrier.
Data set [2] concerns the target T1, ATP-dependent translocase ABCB1. The data set is described as follows: TP_TRANSPORTER: transepithelial transport of Saquinavir at a concentration of 20 uM in MDR1-expressing MDCK cells. The settings on record: dog.
The target is the same in data set [3]. The data set is described as follows: TP_TRANSPORTER: transepithelial transport of Acebutolol at a concentration of 20 uM in Caco-2 cells. To be noted: caco-2, 20 µM.
Data set [4] shares this target. The data set is described as follows: TP_TRANSPORTER: transepithelial transport of Acebutolol at a concentration of 20 uM in MDR1-expressing MDCK cells. The settings on record: dog.
For data set [5] the target is unchanged. The data set is described as follows: TP_TRANSPORTER: transepithelial transport of Colchicine at a concentration of 25 uM in Caco-2 cells. The settings on record: caco-2, 25 µM.
Data set [6] shares this target. Put plainly: TP_TRANSPORTER: transepithelial transport of Colchicine at a concentration of 25 uM in MDR1-expressing MDCK cells. To be noted: dog.
Data set [7] has the same target. Put plainly: TP_TRANSPORTER: transepithelial transport of Digoxin at a concentration of 10 uM in Caco-2 cells.
Data set [8] has the same target. Put plainly: TP_TRANSPORTER: transepithelial transport of Digoxin at a concentration of 10 uM in MDR1-expressing MDCK cells. The settings on record: dog.
For data set [9] the target is unchanged. Put plainly: TP_TRANSPORTER: transepithelial transport of Doxorubicin at a concentration of 10 uM in MDR1-expressing MDCK cells. To be noted: dog.
Data set [10] has the same target. The data set is described as follows: TP_TRANSPORTER: transepithelial transport of Doxorubicin at a concentration of 10 uM in Caco-2 cells.
Data set [11] shares this target. Put plainly: TP_TRANSPORTER: transepithelial transport of Methylprednisolone at a concentration of 20 uM in MDR1-expressing MDCK cells. To be noted: dog.
The target is the same in data set [12]. Put plainly: TP_TRANSPORTER: transepithelial transport of Methylprednisolone at a concentration of 20 uM in Caco-2 cells. To be noted: caco-2, 20 µM.
For data set [13] the target is unchanged. The data set is described as follows: TP_TRANSPORTER: transepithelial transport of Taxol at a concentration of 10 uM in Caco-2 cells.
For data set [14] the target is unchanged. Put plainly: TP_TRANSPORTER: transepithelial transport of Taxol at a concentration of 10 uM in MDR1-expressing MDCK cells. The settings on record: dog.
Data set [15] has the same target. The data set is described as follows: TP_TRANSPORTER: transepithelial transport of Prednisolone at a concentration of 20 uM in MDR1-expressing MDCK cells. To be noted: dog.
Data set [16] shares this target. The data set is described as follows: TP_TRANSPORTER: transepithelial transport of Ranitidine at a concentration of 100 uM in Caco-2 cells. The settings on record: caco-2, 100 µM.
Data set [17] shares this target. Put plainly: TP_TRANSPORTER: transepithelial transport of Ranitidine at a concentration of 100 uM in MDR1-expressing MDCK cells. The settings on record: dog.
Data set [18] has the same target. The data set is described as follows: TP_TRANSPORTER: transepithelial transport of Rhodamine at a concentration of 10 uM in Caco-2 cells.
For data set [19] the target is unchanged. Put plainly: TP_TRANSPORTER: transepithelial transport of Rhodamine at a concentration of 10 uM in MDR1-expressing MDCK cells. To be noted: dog.
For data set [20] the target is unchanged. Put plainly: TP_TRANSPORTER: transepithelial transport of Vinblastine at a concentration of 0.1 uM in MDR1-expressing MDCK cells. To be noted: dog.
Data set [21] shares this target. Put plainly: TP_TRANSPORTER: transepithelial transport in the presence of Vinblastine at 0.1 uM in Caco-2 cells.

T1 sequence (P08183 whole entry): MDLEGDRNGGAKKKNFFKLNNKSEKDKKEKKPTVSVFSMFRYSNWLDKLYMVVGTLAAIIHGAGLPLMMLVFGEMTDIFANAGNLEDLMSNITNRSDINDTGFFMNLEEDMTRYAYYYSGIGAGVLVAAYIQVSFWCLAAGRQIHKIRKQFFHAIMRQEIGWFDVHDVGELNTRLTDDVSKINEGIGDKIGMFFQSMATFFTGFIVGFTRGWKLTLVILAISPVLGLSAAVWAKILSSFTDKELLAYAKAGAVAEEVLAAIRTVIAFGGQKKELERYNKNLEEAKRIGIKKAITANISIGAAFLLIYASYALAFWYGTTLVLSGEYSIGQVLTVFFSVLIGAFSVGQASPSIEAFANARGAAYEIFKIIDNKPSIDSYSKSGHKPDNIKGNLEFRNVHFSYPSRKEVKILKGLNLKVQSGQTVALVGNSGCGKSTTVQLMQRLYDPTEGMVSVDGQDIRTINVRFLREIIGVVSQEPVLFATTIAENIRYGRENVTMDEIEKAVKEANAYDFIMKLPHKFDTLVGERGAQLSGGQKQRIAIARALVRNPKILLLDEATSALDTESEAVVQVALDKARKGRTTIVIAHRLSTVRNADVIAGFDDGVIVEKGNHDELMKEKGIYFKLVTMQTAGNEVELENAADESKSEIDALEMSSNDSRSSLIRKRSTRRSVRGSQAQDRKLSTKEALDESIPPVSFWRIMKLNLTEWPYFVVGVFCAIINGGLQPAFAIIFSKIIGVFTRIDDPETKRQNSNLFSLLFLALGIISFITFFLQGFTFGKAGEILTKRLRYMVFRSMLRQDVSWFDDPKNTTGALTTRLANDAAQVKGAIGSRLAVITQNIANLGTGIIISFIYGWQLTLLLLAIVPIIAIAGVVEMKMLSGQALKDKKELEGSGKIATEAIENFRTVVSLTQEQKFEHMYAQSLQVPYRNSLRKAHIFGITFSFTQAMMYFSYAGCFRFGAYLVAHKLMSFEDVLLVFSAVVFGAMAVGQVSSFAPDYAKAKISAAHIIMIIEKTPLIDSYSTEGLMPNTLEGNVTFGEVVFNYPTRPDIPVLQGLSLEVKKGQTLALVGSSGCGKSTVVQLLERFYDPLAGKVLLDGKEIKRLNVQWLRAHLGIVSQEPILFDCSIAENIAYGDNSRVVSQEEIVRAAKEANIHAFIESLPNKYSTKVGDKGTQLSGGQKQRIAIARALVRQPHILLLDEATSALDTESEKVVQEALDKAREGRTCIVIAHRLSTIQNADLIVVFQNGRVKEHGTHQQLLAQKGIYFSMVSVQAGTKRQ

With `CC(C)(C)NC(=O)[C@@H]1C[C@@H]2CCCC[C@@H]2CN1C[C@@H](O)[C@H](Cc1ccccc1)NC(=O)[C@H](CC(N)=O)NC(=O)c1ccc2ccccc2n1`, the Activity entry in data set [1] and in [2] was “substrate [+]” throughout.
With `CCCC(=O)Nc1ccc(OCC(O)CNC(C)C)c(C(C)=O)c1` (stereo unspecified) [ACEBUTOLOL], the Activity entry in data set [3] and in data set [4] was “substrate [+]” in each case.
As for `COc1cc2c(c(OC)c1OC)-c1ccc(OC)c(=O)cc1[C@@H](NC(C)=O)CC2` [COLCHICINE], the Activity entry in data set [5] and in [6] was “substrate [+]” in each case.
In the case of `C[C@H]1O[C@@H](O[C@H]2[C@@H](O)C[C@H](O[C@H]3[C@@H](O)C[C@H](O[C@H]4CC[C@@]5(C)[C@H](CC[C@@H]6[C@@H]5C[C@@H](O)[C@]5(C)[C@@H](C7=CC(=O)OC7)CC[C@]65O)C4)O[C@@H]3C)O[C@@H]2C)C[C@H](O)[C@@H]1O` [DIGOXIN], the Activity entry in data set [7] and in data set [8] was “substrate [+]” each time.
Turning to `COc1cccc2c1C(=O)c1c(O)c3c(c(O)c1C2=O)C[C@@](O)(C(=O)CO)C[C@@H]3O[C@H]1C[C@H](N)[C@H](O)[C@H](C)O1` [DOXORUBICIN], the Activity entry in data set [9] and in data set [10] was “substrate [+]” in each case.
`C[C@H]1C[C@@H]2[C@H]([C@@H](O)C[C@@]3(C)[C@H]2CC[C@]3(O)C(=O)CO)[C@@]2(C)C=CC(=O)C=C12` [METHYLPREDNISOLONE]: the Activity entry in [11] and in [12] was “substrate [+]” in each case.
Consider `CC(=O)O[C@H]1C(=O)[C@@]2(C)[C@H]([C@H](OC(=O)c3ccccc3)[C@]3(O)C[C@H](OC(=O)[C@H](O)[C@@H](NC(=O)c4ccccc4)c4ccccc4)C(C)=C1C3(C)C)[C@]1(OC(C)=O)CO[C@@H]1C[C@@H]2O` [PACLITAXEL], for which the Activity result in data set [13] and in data set [14] was “substrate [+]” in each case.
For `C[C@]12C=CC(=O)C=C1CC[C@@H]1[C@@H]2[C@@H](O)C[C@@]2(C)[C@H]1CC[C@]2(O)C(=O)CO` [PREDNISOLONE], the Activity result in data set [15] is “substrate [+]”.
For `CNC(=C[N+](=O)[O-])NCCSCc1ccc(CN(C)C)o1` [RANITIDINE], the Activity entry in data set [16] and in data set [17] was “substrate [+]” throughout.
`CCN(CC)c1ccc2c(-c3ccccc3C(=O)O)c3ccc(=[N+](CC)CC)cc-3oc2c1.[Cl-]` [RHODAMINE]: the Activity entry in [18] and in data set [19] was “substrate [+]” in each case.
`CC[C@]1(O)C[C@@H]2CN(CCc3c([nH]c4ccccc34)[C@@](C(=O)OC)(c3cc4c(cc3OC)N(C)[C@H]3[C@@](O)(C(=O)OC)[C@H](OC(C)=O)[C@]5(CC)C=CCN6CC[C@]43[C@@H]65)C2)C1` [VINBLASTINE]: the Activity entry in [20] and in [21] was “substrate [+]” throughout.
